Data taken from publication PMC4970648, “Studies on 16α-Hydroxylation of Steroid Molecules and Regioselective Binding Mode in Homology-Modeled Cytochrome P450-2C11” (International Journal of Medicinal Chemistry, 2010).

The compounds below were run against [3H]PROG 16α-hydroxylating activity by male rat liver microsomes (CYP2C11) (Rattus norvegicus, UniProt P08683) (assay: Inhibition of [3H]progesterone 16α-hydroxylation by adult male rat liver microsomes). Settings: 40% inhibition not reached at 10 μM of unlabeled steroid; male rat liver microsomes.
Sequence of [3H]PROG 16α-hydroxylating activity by male rat liver microsomes (CYP2C11) (P08683 whole entry): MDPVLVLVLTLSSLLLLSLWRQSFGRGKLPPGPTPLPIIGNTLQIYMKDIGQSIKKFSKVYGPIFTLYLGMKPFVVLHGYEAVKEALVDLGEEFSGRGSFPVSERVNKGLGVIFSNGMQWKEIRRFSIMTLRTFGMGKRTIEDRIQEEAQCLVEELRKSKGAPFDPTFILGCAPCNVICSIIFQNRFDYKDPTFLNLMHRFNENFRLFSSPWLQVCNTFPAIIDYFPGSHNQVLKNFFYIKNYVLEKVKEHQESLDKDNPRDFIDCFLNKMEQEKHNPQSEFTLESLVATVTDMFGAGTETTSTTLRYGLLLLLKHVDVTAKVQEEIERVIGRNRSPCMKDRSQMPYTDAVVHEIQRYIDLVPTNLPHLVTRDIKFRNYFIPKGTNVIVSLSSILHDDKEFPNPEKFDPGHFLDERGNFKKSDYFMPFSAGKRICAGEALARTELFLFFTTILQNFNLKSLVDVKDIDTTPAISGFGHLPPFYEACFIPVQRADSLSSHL
Procedure: Approximately 95-day-old male Wistar rats, castrated on the 70th day after birth, were used. The liver microsomes were prepared as previously described. The experiments were performed according to instrumental guidelines for the care and use of laboratory animals.
The metabolism by rat liver microsomes were examined, according to our previously described procedure. Briefly, the microsomal suspension (400–600 μg of protein/2.2 mL, total volume of the reaction mixture) was preincubated with [3H]PROG (20 nM) under the absence or presence of an unlabeled steroid (0.01–10 μM) at 36°C for 30 min. […] After the incubation, two identical samples were mixed and extracted with toluene. The toluene-extractable [3H]PROG metabolites (more than 90%) were isolated by various paper chromatographic systems and then identified by recrysallization method. Other miscellaneous procedures are described in our previous papers.

Q: For `C[C@]12CC[C@H]3[C@@H](CCC4=CC(=O)CC[C@@]43C)[C@@H]1CC[C@@H]2C(=O)O` [compound 39, 4-Androsten-3-one; 17-β-carboxylaic acid], which “[3H]PROG16α-hydroxylation (IC40), given as bound in μM” value is on record?
A: >10 μM^e

Q: Which “[3H]PROG16α-hydroxylation (IC40), given as bound in μM” value does the source give for `CC(=O)[C@H]1CC[C@H]2[C@@H]3CCC4=CC(=O)CC[C@]4(C)[C@H]3[C@@H](O)C[C@]12C` [compound 7, 11β-Hydroxyprogesterone] here?
A: >10 µM

Q: `C[C@]12CC[C@H]3[C@@H](CC=C4C[C@@H](O)CC[C@@]43C)[C@@H]1CC[C@@H]2C(=O)COS(=O)(=O)O` [compound 24, 21-Sulfatepregnenolone] was tested. Which “[3H]PROG16α-hydroxylation (IC40), given as bound in μM” value did it give?
A: >10 µM

Q: With `CC(=O)[C@H]1[C@H](O)C[C@H]2[C@@H]3CCC4=CC(=O)CC[C@]4(C)[C@H]3CC[C@@]21C` [compound 8, 16α-Hydroxyprogesterone] as the compound, how does the “[3H]PROG16α-hydroxylation (IC40), given as bound in μM” value read?
A: >10 µM

Q: With `C[C@@]12CCC[C@H]1[C@@H]1CC[C@@H]3CCCC[C@]3(C)[C@H]1CC2` [compound 47, 5β-Androstane] as the compound, how does the “[3H]PROG16α-hydroxylation (IC40), given as bound in μM” value read?
A: >10 µM

Q: Which “[3H]PROG16α-hydroxylation (IC40), given as bound in μM” value does the source give for `CC(=O)[C@H]1CC[C@H]2[C@@H]3CCC4=CC(=O)CC[C@]4(C)[C@H]3[C@H](O)C[C@]12C` [compound 5, 11α-Hydroxyprogesterone] here?
A: >10 µM

Q: For `C[C@@]12CCC[C@H]1[C@@H]1CC[C@H]3CCCC[C@]3(C)[C@H]1CC2` [compound 46, 5α-Androstane], which “[3H]PROG16α-hydroxylation (IC40), given as bound in μM” value is on record?
A: >10 µM

Same assay, conditions: molar concentration of unlabeled steroid causing 40% inhibition; [3H]PROG 20 nM; unlabeled steroid 0.01–10 μM; male rat liver microsomes

Q: How did the “[3H]PROG16α-hydroxylation (IC40)” value turn out when `CC(=O)[C@H]1CC[C@H]2[C@@H]3CC[C@H]4CC(=O)CC[C@]4(C)[C@H]3CC[C@]12C` [compound 27, 5α-Pregnan-3,20-dione] was run?
A: 720 nM

Q: With `C[C@]12CC[C@H](O)C[C@@H]1CC[C@@H]1[C@@H]2CC[C@]2(C)[C@@H](O)CC[C@@H]12` [compound 65, 5α-Androstan-3β,17β-diol] as the compound, how does the “[3H]PROG16α-hydroxylation (IC40)” value read?
A: 1110 nM

Q: How did the “[3H]PROG16α-hydroxylation (IC40)” value turn out when `CC(=O)O[C@H]1CC[C@H]2[C@@H]3CC[C@H]4C[C@H](O)CC[C@]4(C)[C@H]3CC[C@]12C` [compound 63, 5α-Androstan-3α,17β-diol-17-acetate] was run?
A: 300 nM

Q: With `C[C@]12CC[C@@H](O)C[C@H]1CC[C@@H]1[C@@H]2CC[C@]2(C)[C@@H](O)CC[C@@H]12` [compound 66, 5β-Androstan-3 α,17 β -diol] as the compound, how does the “[3H]PROG16α-hydroxylation (IC40)” value read?
A: 69 nM

Q: How did the “[3H]PROG16α-hydroxylation (IC40)” value turn out when `C[C@]12CCCC[C@H]1CC[C@@H]1[C@@H]2CC[C@]2(C)[C@@H](O)CC[C@@H]12` [compound 53, 5β-Androstan-17β-ol] was run?
A: 365 nM

Q: How did the “[3H]PROG16α-hydroxylation (IC40)” value turn out when `C[C@@]12CCC[C@H]1[C@@H]1CC[C@@H]3C[C@@H](O)CC[C@]3(C)[C@H]1CC2` [compound 51, 5β-Androstan-3β-ol] was run?
A: 160 nM

Q: Which “[3H]PROG16α-hydroxylation (IC40)” value does the source give for `C[C@]12CC[C@H](O)CC1=CC[C@@H]1[C@@H]2CC[C@]2(C)C(=O)CC[C@@H]12` [compound 43, Dehydroepiandrosterone] here?
A: 680 nM

Q: For `C[C@@]12CCC[C@H]1[C@@H]1CC[C@@H]3C[C@H](O)CC[C@]3(C)[C@H]1CC2` [compound 50, 5β-Androstan-3α-ol], which “[3H]PROG16α-hydroxylation (IC40)” value is on record?
A: 510 nM

Q: How did the “[3H]PROG16α-hydroxylation (IC40)” value turn out when `C[C@]12CCC(=O)C[C@H]1CC[C@@H]1[C@@H]2CC[C@]2(C)C(=O)CC[C@@H]12` [compound 55, 5β-Androstan-3,17-dione] was run?
A: 480 nM

Q: `COC(=O)[C@H]1CC[C@H]2[C@@H]3CCC4=CC(=O)CC[C@]4(C)[C@H]3CC[C@]12C` [compound 40, 4-Androsten-3-one;17-β-carboxylaic acid methyl ester] was tested. Which “[3H]PROG16α-hydroxylation (IC40)” value did it give?
A: 801 nM
